# According to US20070031336A1, “3H-phenoxazine derivatives suitable as near-infrared imaging agents, preparation an use thereof” (priority 2003, published 2007):
# Columns and labels:
# [1] = UV/VIS absorption spectra; type: physicochemical
# Method: (§1) UV/VIS and fluorescence spectra are recorded and analyzed. For UV/VIS spectra, a Lambda 19 spectrometer from Perkin Elmer equipped with cells of 1.000 cm pathlength is used. The scan rate is 120 nm/min. The fluorescence data are obtained on a Spex Fluorolog (I.S.A.) spectrometer equipped with a cooled R928 detector (Slit 1 mm). Quantum yields are determined by using Cresylviolett (exc. 595 nm, yield=0.54) as standard.
# [2] = Fluorescence spectra and quantum yield; type: physicochemical; conditions: for Fluorescence φ (quantum yield): standard Cresylviolett
# Method: as §1
# [3] = exc. 595 nm; cited from earlier work
# [4] = target: T1, aggregated Aβ peptide Aβ1-140 (Homo sapiens, UniProt P05067); assay: Binding to aggregated Aβ in solution by differential fluorescence spectroscopy
# T1 construct: aggregated Aβ peptide Aβ1-140 in solution
# T1 sequence (P05067 672-711 limits assumed): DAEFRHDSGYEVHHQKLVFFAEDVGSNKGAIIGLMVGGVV
# Method: (§2) Binding of the agent of the invention (compound Ex. 3) to aggregated Aβ peptide Aβ1-140 in solution is investigated by differential fluorescence spectroscopy and thioflavine displacement. […] Difference spectra are recorded at different concentrations of the agent of the invention (compound Ex. 3) with the magnitude of the fluorescence shift being dependent on the concentration of aggregated Aβ. Saturation is observed at high concentrations of the agent of the invention (compound Ex. 3), and the Kd-value for the agent of the invention (compound Ex. 3) is estimated to be 0.2 μM. In another experiment, aggregated Aβ is incubated with thioflavine T, where fluorescence intensity at 460-560 nm (excitation 445 nm) represents thioflavine bound to aggregated Aβ.
# aggregated Aβ = target: T2, aggregated Aβ (Homo sapiens, UniProt P05067); assay: Thioflavine T displacement from aggregated Aβ; type: binding; conditions: fluorescence 460-560 nm, excitation 445 nm
# T2 construct: aggregated Aβ peptide Aβ1-140 in solution
# T2 sequence (P05067 672-711 limits assumed): as above
# Method: as §2
# AD plaques = assay: In vivo near-infrared imaging in APP23 mice; set-up: species or system mouse; conditions: female 16-months-old transgenic APP23 mice, 3 mg/kg i.v.
# Method: For in vivo near-infrared imaging, 10- to 24-months-old transgenic APP23 mice (3≦n≦5) and as control, non-transgenic APP23 mice of the same age (3≦n≦4) are injected intravenously (i.v.) into the tail-vein with 0.1, 1 and 3 mg/kg agent of invention (0.1, 1 and 3 mg/10 ml in 0.9% saline). Images are recorded 30, 60, 120 and 240 min after systemic administration.
Absorption ε ([1]; solvent H2O),Absorption λmax ([1]; solvent H2O),Absorption ε ([1]; solvent methanol),Absorption λmax ([1]; solvent methanol),Absorption λmax ([1]; solvent mouse serum),Fluorescence λmax ([2]; solvent H2O),Fluorescence φ (quantum yield) ([2]; solvent H2O),Fluorescence λmax ([2]; solvent methanol),Fluorescence φ (quantum yield) ([2]; solvent methanol),Fluorescence λmax ([2]; solvent mouse serum),Fluorescence φ (quantum yield) ([2]; solvent mouse serum),"Kd ([4]; estimated from difference spectra, saturation at high concentrations)",Change of fluorescence spectrum upon β-amyloid binding ([4]; range of 680-720 nm),"Kd (aggregated Aβ; thioflavine concentrations 0.37 μM-3 μM, read-out: apparent binding constants)",Compound,Quantum yield of the standard [3],Effect on fluorescence of thioflavine bound to aggregated Aβ (aggregated Aβ),Specific binding to AD plaques (FIG. 1) (AD plaques)
56700 I/Mcm,657 nm,67430 I/Mcm,649 nm,658 nm,677 nm,24%,677 nm,61%,677 nm,28%,–,–,–,"CC[N+]1=c2cc3c(cc2CCC1)=Nc1cc2c(cc1O3)N(C)CCO2.[Cl-] [Ex. 2, 8-Ethyl-4-methyl-2,3,4,9,10,11-hexahydro-1,6-dioxa-4,13-diaza-8-azonia-pentacen chloride]",–,–,–
–,–,–,–,–,–,–,–,–,–,–,–,–,–,N=c1ccc2nc3c(cc(N)c4ccccc43)oc-2c1 [Cresylviolett],0.54,–,–
12880 I/Mcm,665 nm,13920 I/Mcm,659 nm,665 nm,695 nm,12%,695 nm,28%,695 nm,13%,–,–,–,"CN1CCOc2cc3c(cc21)Oc1cc2c(cc1=N3)SCC[N+]=2C.[Cl-] [Ex. 4, 4,8-Dimethyl-2,3,9,10-tetrahydro-4H-1,6-dioxa-11-thia-4,13-diaza-8-azonia-pentacen chloride]",–,–,–
61930 I/Mcm,650 nm,64570 I/Mcm,644 nm,650 nm,670 nm,37%,670 nm,61%,670 nm,41%,~200 nM,slightly reduced fluorescence intensity,100 to 200 nM,"CN1CCOc2cc3c(cc21)Oc1cc2c(cc1=N3)OCC[N+]=2C.F[B-](F)(F)F [Ex. 3, 4,8-Dimethyl-3,8,9,10-tetrahydro-2H-1,6,11-trioxa-8,13-diaza-4-azonia-pentacen tetrafluoroborate]",–,concentration-dependent fluorescence reduction,specific binding
